Test results from patent publication US10406157B2, “Tetrahydropyridopyrazine modulators of GPR6” (Takeda Pharmaceutical Company Limited, priority 2017, dated 2019).

Tests used:
[1] = molecular target: GPR6 receptor expressed in CHO-K1 cells (Homo sapiens (Human), UniProt P46095); assay: In vitro inhibition of constitutive cAMP activity of GPR6 receptor (EC50); assay type: cell-based; conditions: CHO-K1 cells expressing GPR6
Description: This cell-based assay measures the ability of test compounds to inhibit the constitutive cAMP activity of GPR6 receptor expressed in CHO-K1 cells. CHO cells are stably expressed with GPR6 receptor, whose expression is controlled by a tetracycline inducible element. The cells were cultured in medium containing F12K, 10% FBS, 1% Penn/Strep, 200 μg/mL Hygromycin. GPR6 receptor expression is induced for 20 hours with 2 μg/mL doxycycline (Sigma D9891) in growth media. After addition of doxycycline, the cells are plated at a density of 450-750 cells per well in 96-well half-volume black tissue culture plates (Costar) and placed in an incubator (37° C., 5% CO2) for 20 hours prior to cAMP assays.
Culture media is removed from the cells and they are washed with 50 μL/well of Ringer's Buffer (MgCl2 0.047 mg/mL, NaH2PO4 0.18 mg/mL, Na2HPO4 0.1 mg/mL, KCl 0.34 mg/mL, NaHCO31.26 mg/mL, D-glucose 1.8 mg/mL, NaCl 7 mg/mL; pH=7.4). The test compounds are suspended in DMSO, diluted in Ringer's Buffer containing 0.5% fatty acid free BSA plus 300 μM 3-isobutyl-1-methylxanthine (IBMX), and incubated on the cells for 45 minutes at 37° C. and 5% CO2. […] Then ULIGHT™-anti-cAMP solution from the LANCE® kit is added and incubated on a shaker at room temperature for 1 hour prior to homogeneous time resolved fluorescence (HTRF) detection in a PerkinElmer EnVision plate reader. […]

human hERG = human hERG (Homo sapiens (Human), UniProt Q12809); assay: Inhibition of human hERG via automated whole cell patch clamp; assay type: cell-based; conditions: for IC50: CHO-K1 cells transfected with human hERG cDNA, patch clamp; for safety margin relative to inhibition of hERG: statement in words
Sequence of human hERG (Q12809 whole entry): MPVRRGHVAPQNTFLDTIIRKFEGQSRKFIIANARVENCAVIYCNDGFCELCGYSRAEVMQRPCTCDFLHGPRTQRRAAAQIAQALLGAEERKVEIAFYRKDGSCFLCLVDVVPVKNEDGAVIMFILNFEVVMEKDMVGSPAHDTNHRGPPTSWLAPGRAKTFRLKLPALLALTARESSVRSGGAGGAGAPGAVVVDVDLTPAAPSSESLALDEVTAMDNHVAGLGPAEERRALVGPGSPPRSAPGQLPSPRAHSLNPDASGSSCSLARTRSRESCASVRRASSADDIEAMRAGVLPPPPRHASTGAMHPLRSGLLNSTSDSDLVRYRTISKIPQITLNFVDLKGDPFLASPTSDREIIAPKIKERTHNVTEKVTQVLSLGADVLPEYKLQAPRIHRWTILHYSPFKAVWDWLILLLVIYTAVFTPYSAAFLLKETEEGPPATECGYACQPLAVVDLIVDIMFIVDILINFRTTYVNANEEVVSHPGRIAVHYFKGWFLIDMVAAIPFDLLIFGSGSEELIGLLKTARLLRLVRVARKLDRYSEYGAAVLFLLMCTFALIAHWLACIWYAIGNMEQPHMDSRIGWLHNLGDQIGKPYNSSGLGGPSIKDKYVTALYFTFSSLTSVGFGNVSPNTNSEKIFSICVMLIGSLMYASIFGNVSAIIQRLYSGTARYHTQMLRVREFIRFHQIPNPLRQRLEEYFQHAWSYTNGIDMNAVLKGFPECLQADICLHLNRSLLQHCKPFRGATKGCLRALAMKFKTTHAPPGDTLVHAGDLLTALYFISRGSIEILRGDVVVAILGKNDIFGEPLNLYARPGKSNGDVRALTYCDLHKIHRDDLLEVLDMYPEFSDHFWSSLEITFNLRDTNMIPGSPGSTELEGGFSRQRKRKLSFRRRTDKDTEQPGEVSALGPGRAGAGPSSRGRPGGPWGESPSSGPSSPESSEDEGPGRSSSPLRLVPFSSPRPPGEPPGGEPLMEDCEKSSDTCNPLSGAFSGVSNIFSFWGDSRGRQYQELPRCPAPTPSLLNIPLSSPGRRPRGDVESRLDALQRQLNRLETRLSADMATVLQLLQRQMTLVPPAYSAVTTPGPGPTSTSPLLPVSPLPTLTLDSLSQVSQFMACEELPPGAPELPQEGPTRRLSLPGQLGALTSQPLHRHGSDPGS
Description: An automated whole cell patch-clamp system (QPATCH® 16) is used to record outward potassium currents from a single cell. The assay employs CHO-K1 (Chinese Hamster Ovary) cells stably transfected with human hERG cDNA. The cells are harvested by trypsinization and maintained in serum-free medium at room temperature before recording. The cells are washed and re-suspended in the extracellular solution before being applied to the automated patch-clamp sites. The test solutions are prepared in the aqueous extracellular solution (137 mM NaCl, 4 mM KCl, 1.8 mM CaCl2), 1 mM MgCl2, 10 mM D(+)-Glucose, 10 mM HEPES, pH adjusted to 7.4 with NaOH) on the day of patch-clamp assay. Seven concentrations (0.03, 0.1, 0.3, 1, 3, 10, and 30 μM) of the test compound are used to determine IC50. The aqueous intracellular solution contains 130 mM KCl, 10 mM NaCl, 1 mM MgCl2, 10 mM EGTA, 5 mM MgATP, and 10 mM HEPES (pH adjusted to 7.2 with KOH).
After whole cell configuration is achieved, the cell is held at −80 mV. A 50 ms pulse to −40 mV is delivered to measure the leaking current, which is subtracted from the tail current on-line. Then the cell is depolarized to +20 mV for 2 seconds, followed by a 1 second pulse to −40 mV to reveal the hERG tail current. This paradigm is delivered once every 5 seconds to monitor the current amplitude. The assay is conducted at room temperature. The extracellular solution (control) is applied first and the cell is stabilized in the solution for 5 minutes. Then the test compound is applied from low to high concentrations sequentially on the same cell. The cells are incubated with each test concentration for 5 minutes. A reference compound E-4031 (N-(4-(1-(2-(6-methylpyridin-2-yl)ethyl)piperidine-4-carbonyl)phenyl)methanesulfonamide) is tested concurrently at multiple concentrations to obtain an IC50 value. The percent inhibition of hERG channel is calculated by comparing the tail current amplitude before and after application of the compound (the current difference is normalized to the control).

human GPR6 = human GPR6 (Homo sapiens (Human), UniProt P46095); conditions: membranes from CHO-K1 cells expressing human GPR6, 3H radioligand
Sequence of human GPR6 (P46095 whole entry): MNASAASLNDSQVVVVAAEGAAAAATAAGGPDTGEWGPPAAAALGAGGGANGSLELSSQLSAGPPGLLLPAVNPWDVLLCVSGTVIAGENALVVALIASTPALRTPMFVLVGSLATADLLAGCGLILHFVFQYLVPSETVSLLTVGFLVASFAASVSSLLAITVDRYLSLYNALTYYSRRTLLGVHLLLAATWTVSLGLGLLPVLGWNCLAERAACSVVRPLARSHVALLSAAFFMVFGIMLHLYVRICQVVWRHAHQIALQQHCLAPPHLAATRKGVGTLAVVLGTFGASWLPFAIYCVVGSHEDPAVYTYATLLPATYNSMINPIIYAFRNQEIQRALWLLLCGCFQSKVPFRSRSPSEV
Description: A competition binding assay using a filtration-based format is used to study the binding characteristics of GPR6 inverse agonists. The method employs membranes prepared from CHO-K1 cells expressing human GPR6 cDNA driven by a doxycycline inducible promoter. Assay ready 96 well plates (651201, Greiner, USA) containing serial dilutions of test compounds (1 μL of test ligand/well) are prepared in DMSO using liquid handlers (5 μM, final assay top concentration). Assay buffer (50 mM Tris, pH 7.4, 50 mM NaCl, 6 mM MgCl2, fatty acid free 0.1% BSA, 1:100 proteinase inhibitor cocktail, Sigma USA) is added (39 μL/well) and the plates are mixed on a plate shaker for 10 minutes. GPR6-specific ^3H radioligand is prepared in assay buffer and is added to each well (40 μL, 2.4 nM final assay concentration).
To initiate the binding reactions, 40 μL of total membranes obtained from cells expressing human GPR6 receptors is added. The membranes are prepared in assay buffer and added per well to 15 μg/well final assay concentration. […] Scintillator sheet (1450-411, PerkinElmer, USA) is melted on filters and heat-sealed before CPM/well were quantified in MICROBETA® Trilux instrument (PerkinElmer, USA). […] The IC50 and Ki values are calculated using non-linear regression analysis in Prism (GraphPad, USA). Kd values are determined in standard radioligand saturation experiments.

6-OHDA rat model = assay: 6-Hydroxydopamine (6-OHDA) rat model of Parkinson's disease, locomotor activity; assay type: in vivo
Description: Compounds that improve motor activity are considered promising as potential therapies for Parkinson's disease. Rats of the 6-OHDA model of Parkinson's disease received bilateral injections of 6-OHDA into the striatum and coordinates Anterior-Posterior (AP): Medial-Lateral (ML): Dorsal-Ventral (DV), 1±3, −5 mm relative to Bregma under anaesthesia. Rats were tested for locomotor activity at least 28 days later.
Locomotor activity was measured in an open field arena covered in an array of infrared beams. Beam breaks by the animals were processed using AMLOGGER software to monitor activity.

conscious beagle dogs = assay: Effects on the cardiovascular system using telemetry in conscious beagle dogs; assay type: in vivo, dog; conditions: single oral gavage doses 30, 100 and 300 mg/kg, compared to vehicle
Description: The beagle dogs are equipped with telemetry devices from DSI PHYSIOTEL® Digital L21 transmitter implants according to the appropriate Charles River Laboratories, Montreal, QC Standard Operating Procedure (TB 12-04-06). The biopotential leads are placed in a modified lead II configuration. A minimum acclimation period of 6 days is allowed between animal arrival and the start of the surgical implantation of the telemetry devices in order to accustom the animals to the laboratory environment. A minimum recovery period of 4 weeks is allowed between surgeries and the start of treatment. […]
The parameters monitored include: heart rate derived from blood pressure, left ventricular pressure (LVP), and electrocardiogram waveforms; LVP (peak systolic and end-diastolic LVP and max positive/negative dP/dt values); electrocardiogram (PR interval (PR), RR variability (RR″), QRS complex (QRS), QT intervals, and QTcv calculated using the Van de Water equation QTcv=QT−87(60/HR−1)); and body temperature.
Marking of ECG segments is conducted using ECG Pattern Recognition software. A library for each animal is constructed of representative cycles from both the day and night cycle and is applied across monitoring occasions to ensure appropriate marking for quantitative assessments, in accordance with the appropriate Charles River Laboratories, Montreal, QC. […]

Sequence of GPR6 receptor expressed in CHO-K1 cells (P46095 whole entry): as above

| SMILES | pEC50 [1] | IC50 (human hERG) [nM] | safety margin relative to inhibition of hERG (human hERG) | Ki (human GPR6) [nM] | locomotor activity (6-OHDA rat model; 5 mg/kg and 10 mg/kg, compared to vehicle, after 50 minutes, FIG. 1) | locomotor activity (6-OHDA rat model; 10 mg/kg dose) | arterial blood pressures, contractility, P-R interval, QRS complex, QT interval durations (conscious beagle dogs) | hERG inhibition potency compared with Compound A (human hERG; comparison in words) |
| --- | --- | --- | --- | --- | --- | --- | --- | --- |
| CC(=O)N1CCc2nc(N3CCC(Oc4ccc(F)cc4F)CC3)c(N[C@H]3CCOC3)nc2C1 [Compound A, (S)-1-(2-(4-(2,4-difluorophenoxy)piperidin-1-yl)-3-((tetrahydrofuran-3-yl)amino)-7,8-dihydropyrido[3,4-b]pyrazin-6(5H)-yl)ethan-1-one, reference compound] | 7.2 | 505 | suboptimal safety margin | 6 | – | – | – | – |
| CC(=O)N1CCc2nc(N3CCC(Oc4ccc(F)cc4F)CC3)c(N[C@@H]3CCOC3)nc2C1 [Formula 1, (R)-1-(2-(4-(2,4-difluorophenoxy)piperidin-1-yl)-3-((tetrahydrofuran-3-yl)amino)-7,8-dihydropyrido[3,4-b]pyrazin-6(5H)-yl)ethan-1-one] | 7.2 | 1970 | improved SM-free | 5.5 | dose dependent improvement in locomotor activity | significant increase in activity | No changes are observed | significantly less potent inhibitor of hERG than Compound A |
